# In patent US7238689B2, “Isoxazoline derivative and herbicide comprising the same as active ingredient” (Ihara Chemical Industry Co., Ltd., priority 2001, dated 2007):
# Experiments:
# Type in all cases: in vivo
# Design in all cases: scale not given here
# [1] = test system: Monochoria vaginalis (Murm. f.) Presl var. plantaginea (Roxb.) Solms-Laub.; experiment: Herbicidal effect by paddy field soil treatment; settings: wettable powder, active ingredient 1000 g/ha, examined at the 21st day from the treatment
# Protocol: (§1) A paddy field soil was filled in a plastic pot of 100 cm^2 and subjected to puddling. Then, seeds of Echinochloa oryzicola Vasing and Monochoria vaginalis (Murm. f.) Presl var. plantaginea (Roxb.) Solms-Laub. were sowed and water was filled in a depth of 3 cm. Next day, wettable powders produced in accordance with the Formulation 1 were diluted with water and dropped on the water surface. The application amount of each wettable powder was 1,000 g per 1 hectare in terms of the active ingredient. Then, breeding was made in a greenhouse, and the herbicidal effect of each wettable powder was examined at the 21st day from the treatment in accordance with the standard shown in Table 21.
# [2] = test system: Echinochloa oryzicola Vasing; experiment: Herbicidal effect by paddy field soil treatment; settings: wettable powder, active ingredient 1000 g/ha, examined at the 21st day from the treatment
# Protocol: as §1
# [3] = test system: Echinochloa crus-galli (L.) Beauv. var. crusgalli; experiment: Herbicidal effect by upland field soil treatment; settings: active ingredient 1000 g/ha, examined at 21st day from treatment
# From the text: (§2) An upland field soil was filled in a plastic pot of 80 cm^2. Seeds of Echinochloa crus-galli (L.) Beauv. var. crusgalli and Setaria viridis (L.) Beauv. were sowed, followed by covering with the same soil. […] Then, breeding was made in a greenhouse, and the herbicidal effect of each wettable powder was examined at the 21st day from the treatment in accordance with the standard shown in Table 21.
# [4] = test system: Setaria viridis (L.) Beauv.; experiment: Herbicidal effect by upland field soil treatment; settings: active ingredient 1000 g/ha, examined at 21st day from treatment
# From the text: as §2
Structure (SMILES),"Herbicidal effect index, Monochoria vaginalis (Burm. F.) Presl var. plantaginea (Roxb.) Solms-Laub. [1]","Herbicidal effect index, Echinochloa oryzicola Vasing [2]","herbicidal effect (index per standard of Table 21), Echinochloa curs-galli (L.) Beauv. Var. crus-galli [3]","herbicidal effect (index per standard of Table 21), Setaria viridis (L.) Beauv. [4]"
CC(C)C(SC1=NOC(C)(C)C1)c1cncnc1C(F)(F)F (racemic) [8-0012],5,5,–,–
Cc1ccc(CS(=O)(=O)C2=NOC(C)(C)C2)s1 [1-0003],5,5,5,5
CC1(C)CC(S(=O)(=O)Cc2ccc(Cl)s2)=NO1 [1-0005],5,5,5,5
CC1(C)CC(S(=O)(=O)Cc2ccco2)=NO1 [1-0006],–,–,5,4
CC1(C)CC(S(=O)(=O)Cc2cc(Cl)sc2Cl)=NO1 [2-0005],5,5,5,5
Cc1sc(C)c(CS(=O)(=O)C2=NOC(C)(C)C2)c1C [2-0007],–,–,4,4
"Cn1nc(C(F)F)c(CSC2=NOC(C)(C)C2)c1Cl [3-0020, 3-(5-chloro-3-difluoromethyl-1-methyl-1H-pyrazol-4-ylmethylthio)-5,5-dimethyl-2-isoxazoline]",–,–,5,5
COc1nn(C)c(C(F)(F)F)c1CS(=O)(=O)C1=NOC(C)(C)C1 [3-0043],–,–,5,5
CCCCOc1c(CS(=O)(=O)C2=NOC(C)(C)C2)c(C(F)(F)F)nn1C [3-0048],–,–,5,5
Cn1nc(C(F)(F)F)c(CS(=O)(=O)C2=NOC(C)(C)C2)c1OCC1CC1 [3-0050],–,–,5,5
Cn1nc(C(F)(F)F)c(CS(=O)(=O)C2=NOC(C)(C)C2)c1OCC1CCCC1 [3-0051],5,5,–,–
C#CCOc1c(CS(=O)(=O)C2=NOC(C)(C)C2)c(C(F)(F)F)nn1C [3-0053],–,–,5,5
Cn1nc(C(F)(F)F)c(CS(=O)(=O)C2=NOC(C)(C)C2)c1OCC(F)F [3-0056],–,–,5,5
Cn1nc(C(F)(F)F)c(CS(=O)(=O)C2=NOC(C)(C)C2)c1Oc1cccc(Cl)c1 [3-0061],5,5,–,–
Cn1nc(C(F)(F)F)c(CS(=O)(=O)C2=NOC(C)(C)C2)c1Oc1ccc(Cl)cc1 [3-0063],–,–,5,5
CC1(C)CC(S(=O)(=O)Cc2c(C(F)(F)F)nn(C3CCCC3)c2Cl)=NO1 [3-0089],5,5,–,–
CC1(C)CC(S(=O)(=O)Cc2c(Cl)nn(C3CCCC3)c2C(F)(F)F)=NO1 [3-0090],5,5,–,–
CC1(C)CC(S(=O)(=O)Cc2c(C(F)(F)F)nn(CC3CCCC3)c2Cl)=NO1 [3-0100],5,5,–,–
CC1(C)CC(S(=O)(=O)Cc2c(Cl)nn(CC3CCCC3)c2C(F)(F)F)=NO1 [3-0101],5,5,–,–
CC1(C)CC(S(=O)(=O)Cc2c(C(F)(F)F)nn(CC3CCCCC3)c2Cl)=NO1 [3-0102],5,5,–,–
CC1(C)CC(S(=O)(=O)Cc2c(Cl)nn(CC3CCCCC3)c2C(F)(F)F)=NO1 [3-0103],5,5,–,–

Structure (SMILES),"Herbicidal effect index, Monochoria vaginalis (Burm. F.) Presl var. plantaginea (Roxb.) Solms-Laub. [1]","Herbicidal effect index, Echinochloa oryzicola Vasing [2]","herbicidal effect (index per standard of Table 21), Echinochloa curs-galli (L.) Beauv. Var. crus-galli [3]","herbicidal effect (index per standard of Table 21), Setaria viridis (L.) Beauv. [4]"
CCOC(=O)Cn1nc(C(F)(F)F)c(CS(=O)(=O)C2=NOC(C)(C)C2)c1Cl [3-0136],–,–,5,5
CC1(C)CC(S(=O)(=O)Cc2c(C(F)(F)F)nn(CC(N)=O)c2Cl)=NO1 [3-0138],–,–,4,5
CC(=O)Cn1nc(C(F)(F)F)c(CS(=O)(=O)C2=NOC(C)(C)C2)c1Cl [3-0142],–,–,5,5
CC(=O)Cn1nc(Cl)c(CS(=O)(=O)C2=NOC(C)(C)C2)c1C(F)(F)F [3-0143],–,–,5,5
CC1(C)CC(S(=O)(=O)Cc2c(C(F)(F)F)nn(-c3ccccc3)c2OC(F)F)=NO1 [3-0160],5,5,–,–
CC1(C)CC(S(=O)(=O)Cc2c(C(F)(F)F)nn(S(=O)(=O)c3ccccc3)c2Cl)=NO1 [3-0176],5,5,–,–
CC(=O)n1nc(C(F)(F)F)c(CS(=O)(=O)C2=NOC(C)(C)C2)c1Cl [3-0177],5,5,–,–
CC1(C)CC(S(=O)(=O)Cc2c(C(F)(F)F)nn(C(=O)c3ccccc3)c2Cl)=NO1 [3-0178],5,5,–,–
"Cc1onc(C(F)(F)F)c1CS(=O)(=O)C1=NOC(C)(C)C1 [4-0001, 5,5-dimethyl-3-(5-methyl-3-trifluoromethylisoxazol-4-ylmehtylsulfonyl)-2-isoxazoline]",5,5,–,–
CCOc1onc(C(F)(F)F)c1CS(=O)(=O)C1=NOC(C)(C)C1 [4-0006],–,–,5,5
CC1(C)CC(S(=O)(=O)Cc2nn(C(F)F)c3c2CCCC3)=NO1 [6-0001],–,–,5,5
"CC1(C)CC(S(=O)(=O)Cc2c[n+]([O-])ccc2C(F)(F)F)=NO1 [7-0002, 5,5-dimethyl-3-(4-trifluoromethyl-pyridine-N-oxide-3-ylmethylsulfonyl)-2-isoxazoline]",–,–,5,5
COc1c(CS(=O)(=O)C2=NOC(C)(C)C2)c(-c2ccccc2)cc[n+]1[O-] [7-0007],–,–,5,4
CCOc1ncnc(C(F)(F)F)c1CS(=O)(=O)C1=NOC(C)(C)C1 [8-0004],–,–,5,5
COc1ncnc(OC)c1CS(=O)(=O)C1=NOC(C)(C)C1 [8-0005],–,–,5,4
COc1nc(OC)c(CS(=O)(=O)C2=NOC(C)(C)C2)c(C(F)(F)F)n1 [8-0007],–,–,5,5
CC1(C)CC(S(=O)(=O)Cc2ccncc2)=NO1 [9-0003],5,5,–,–
CC1(C)CC(S(=O)(=O)Cc2nc(Cc3ccccc3)no2)=NO1 [9-0007],–,–,4,4
CC1(C)CC(S(=O)(=O)Cc2cc3ccccc3s2)=NO1 [10-0002],4,5,–,–
CC1(C)CC(S(=O)(=O)Cc2csc3ccc(Cl)cc23)=NO1 [10-0008],5,5,–,–
CC1(C)CC(S(=O)(=O)Cc2sc3ccccc3c2Br)=NO1 [10-0011],5,5,–,–
